Measured values from ChEMBL document CHEMBL3431459, “Roche carnitine palmitoyltransferase modulator screening data (supplementary data associated with the publication CHEMBL2216752)”.
Values after ≈ are worked out from the molar mass of the structure shown.

Key:
[1] = biological target: T1, Carnitine O-palmitoyltransferase 1, muscle isoform (Homo sapiens, UniProt Q92523); assay: SUPPLEMENTARY: Inhibition of Carnitine palmitoyltransferase 1, muscle isoform; design: species or system Muscle tissue
T1 sequence (Q92523 whole entry): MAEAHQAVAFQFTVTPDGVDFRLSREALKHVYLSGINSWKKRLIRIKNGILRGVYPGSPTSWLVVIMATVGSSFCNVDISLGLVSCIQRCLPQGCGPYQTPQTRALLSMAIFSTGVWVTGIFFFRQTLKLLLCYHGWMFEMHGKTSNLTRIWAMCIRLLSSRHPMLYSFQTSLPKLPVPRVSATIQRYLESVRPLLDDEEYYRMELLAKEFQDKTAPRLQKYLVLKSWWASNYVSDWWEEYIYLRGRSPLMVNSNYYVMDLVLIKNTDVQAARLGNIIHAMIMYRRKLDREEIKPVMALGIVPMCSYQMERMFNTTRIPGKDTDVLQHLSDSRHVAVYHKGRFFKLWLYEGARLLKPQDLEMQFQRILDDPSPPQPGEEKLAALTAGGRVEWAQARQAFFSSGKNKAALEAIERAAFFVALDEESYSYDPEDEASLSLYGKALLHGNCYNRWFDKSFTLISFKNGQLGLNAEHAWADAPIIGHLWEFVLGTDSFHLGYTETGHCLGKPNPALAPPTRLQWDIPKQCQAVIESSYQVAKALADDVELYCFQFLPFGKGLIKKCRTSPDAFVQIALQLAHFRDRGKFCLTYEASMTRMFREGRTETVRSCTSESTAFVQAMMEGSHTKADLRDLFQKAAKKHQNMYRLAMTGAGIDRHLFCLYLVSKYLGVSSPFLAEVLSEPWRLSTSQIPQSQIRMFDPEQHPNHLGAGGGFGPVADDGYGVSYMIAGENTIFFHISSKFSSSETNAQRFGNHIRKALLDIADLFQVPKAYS

[2] = biological target: T2, Carnitine O-palmitoyltransferase 1, liver isoform (Homo sapiens, UniProt P50416); assay: (§1) SUPPLEMENTARY: Inhibition of Carnitine palmitoyltransferase 1, liver isoform
T2 sequence (P50416 whole entry): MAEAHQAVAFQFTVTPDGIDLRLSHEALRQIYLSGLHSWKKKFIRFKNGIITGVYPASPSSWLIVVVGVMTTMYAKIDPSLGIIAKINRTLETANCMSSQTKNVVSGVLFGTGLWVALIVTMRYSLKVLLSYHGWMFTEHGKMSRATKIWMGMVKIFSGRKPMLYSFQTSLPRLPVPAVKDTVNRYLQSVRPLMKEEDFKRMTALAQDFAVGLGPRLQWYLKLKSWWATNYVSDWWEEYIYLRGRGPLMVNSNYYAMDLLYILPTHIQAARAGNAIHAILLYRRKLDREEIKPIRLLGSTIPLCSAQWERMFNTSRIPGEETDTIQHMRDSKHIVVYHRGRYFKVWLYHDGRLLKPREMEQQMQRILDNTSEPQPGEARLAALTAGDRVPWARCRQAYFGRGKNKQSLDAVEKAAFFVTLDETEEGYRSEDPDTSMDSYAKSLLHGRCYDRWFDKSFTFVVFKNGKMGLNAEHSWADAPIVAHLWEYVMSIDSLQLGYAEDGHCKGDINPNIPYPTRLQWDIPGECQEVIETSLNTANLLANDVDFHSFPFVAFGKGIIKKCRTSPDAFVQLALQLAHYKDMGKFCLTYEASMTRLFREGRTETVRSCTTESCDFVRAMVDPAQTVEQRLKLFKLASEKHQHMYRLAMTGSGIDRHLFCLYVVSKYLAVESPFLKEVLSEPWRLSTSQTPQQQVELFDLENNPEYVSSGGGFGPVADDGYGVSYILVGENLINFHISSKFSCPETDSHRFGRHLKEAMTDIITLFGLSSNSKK

[3] = biological target: T3, Carnitine O-palmitoyltransferase 1, liver isoform (Rattus norvegicus, UniProt P32198); assay: as §1
T3 sequence (P32198 whole entry): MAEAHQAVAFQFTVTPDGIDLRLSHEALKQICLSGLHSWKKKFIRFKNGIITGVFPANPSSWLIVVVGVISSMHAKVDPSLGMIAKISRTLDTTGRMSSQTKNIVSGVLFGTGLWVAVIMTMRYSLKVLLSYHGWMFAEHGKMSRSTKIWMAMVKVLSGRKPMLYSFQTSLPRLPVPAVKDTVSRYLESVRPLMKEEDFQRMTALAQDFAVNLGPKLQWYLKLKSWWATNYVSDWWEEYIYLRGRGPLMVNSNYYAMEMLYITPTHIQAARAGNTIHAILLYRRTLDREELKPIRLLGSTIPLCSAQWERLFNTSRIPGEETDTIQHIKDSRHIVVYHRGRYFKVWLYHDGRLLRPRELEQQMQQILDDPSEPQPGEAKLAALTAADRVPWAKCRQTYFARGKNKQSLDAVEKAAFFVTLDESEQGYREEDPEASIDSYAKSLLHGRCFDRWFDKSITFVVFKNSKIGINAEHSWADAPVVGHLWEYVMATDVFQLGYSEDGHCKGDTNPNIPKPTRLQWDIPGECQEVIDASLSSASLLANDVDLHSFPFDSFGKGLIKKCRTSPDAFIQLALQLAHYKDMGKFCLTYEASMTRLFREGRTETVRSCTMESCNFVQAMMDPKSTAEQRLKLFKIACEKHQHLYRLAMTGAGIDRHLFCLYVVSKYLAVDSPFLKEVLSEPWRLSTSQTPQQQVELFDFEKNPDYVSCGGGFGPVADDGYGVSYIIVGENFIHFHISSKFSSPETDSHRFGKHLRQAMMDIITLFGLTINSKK

[4] = SUPPLEMENTARY: PAMPA permeability assay; format: physicochemical; conditions: read-out: Permeability
[5] = SUPPLEMENTARY: Lyophilisation Solubility Assay (LYSA); format: physicochemical; conditions: read-out: Kinetic_solubility
[6] = biological target: T4, Carnitine O-palmitoyltransferase 2, mitochondrial (Rattus norvegicus, UniProt P18886); assay: (§2) SUPPLEMENTARY: Inhibition of Carnitine palmitoyltransferase 2
T4 sequence (P18886 whole entry): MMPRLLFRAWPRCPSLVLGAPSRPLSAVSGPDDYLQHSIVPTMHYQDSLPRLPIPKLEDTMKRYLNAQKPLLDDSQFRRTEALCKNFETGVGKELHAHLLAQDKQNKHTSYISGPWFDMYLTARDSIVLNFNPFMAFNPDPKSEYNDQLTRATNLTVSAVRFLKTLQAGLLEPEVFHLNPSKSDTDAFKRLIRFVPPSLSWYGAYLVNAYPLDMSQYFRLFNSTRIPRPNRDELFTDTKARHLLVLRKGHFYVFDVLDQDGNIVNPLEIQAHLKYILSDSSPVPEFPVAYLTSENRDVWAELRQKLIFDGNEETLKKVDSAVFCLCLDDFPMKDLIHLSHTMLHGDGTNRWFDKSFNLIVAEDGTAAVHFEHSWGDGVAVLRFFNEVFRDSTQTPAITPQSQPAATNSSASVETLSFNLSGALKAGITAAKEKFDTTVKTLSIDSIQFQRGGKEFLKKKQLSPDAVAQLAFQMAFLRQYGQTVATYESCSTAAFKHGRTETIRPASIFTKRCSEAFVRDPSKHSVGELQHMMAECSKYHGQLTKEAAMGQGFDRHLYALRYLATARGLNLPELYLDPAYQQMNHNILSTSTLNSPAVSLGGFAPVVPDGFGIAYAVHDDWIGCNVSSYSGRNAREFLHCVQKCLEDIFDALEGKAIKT

[7] = biological target: T5, Carnitine O-palmitoyltransferase 2, mitochondrial (Homo sapiens, UniProt P23786); assay: as §2
T5 sequence (P23786 whole entry): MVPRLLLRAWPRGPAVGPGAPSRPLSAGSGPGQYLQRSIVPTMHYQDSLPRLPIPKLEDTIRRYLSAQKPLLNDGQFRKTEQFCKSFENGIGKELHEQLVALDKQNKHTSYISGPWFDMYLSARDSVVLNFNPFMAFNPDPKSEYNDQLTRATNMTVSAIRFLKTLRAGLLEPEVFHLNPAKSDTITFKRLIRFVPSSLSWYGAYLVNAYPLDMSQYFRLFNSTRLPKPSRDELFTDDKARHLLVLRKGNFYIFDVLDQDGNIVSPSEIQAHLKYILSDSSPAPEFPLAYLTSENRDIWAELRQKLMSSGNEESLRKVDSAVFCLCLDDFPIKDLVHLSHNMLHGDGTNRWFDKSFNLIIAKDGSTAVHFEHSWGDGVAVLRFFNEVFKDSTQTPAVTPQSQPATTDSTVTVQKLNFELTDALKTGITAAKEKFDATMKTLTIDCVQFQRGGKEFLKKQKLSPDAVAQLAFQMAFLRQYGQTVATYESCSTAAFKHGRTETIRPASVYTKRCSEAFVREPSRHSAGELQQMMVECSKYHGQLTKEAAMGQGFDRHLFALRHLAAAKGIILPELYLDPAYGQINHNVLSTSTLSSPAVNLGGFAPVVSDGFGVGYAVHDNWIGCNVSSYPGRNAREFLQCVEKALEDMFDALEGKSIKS

[8] = SUPPLEMENTARY: Lipophilicity (log D) Determination by high-throughput shake-flask; format: physicochemical; conditions: octanol/water

| Structure (SMILES) | IC50 [1] [µM] | IC50 [2] [nM] | IC50 [3] [nM] | Papp [4] [×10⁻⁶ cm/s] | solubility kinetic [5] [µg/mL] | IC50 [6] [µM] | IC50 [7] [µM] | logD [8] |
| --- | --- | --- | --- | --- | --- | --- | --- | --- |
| NC(=O)c1cccc(-c2n[nH]c([C@H]3CCCCN3C(=O)COc3ccccc3)n2)c1 | > 100 | 93.1 | 563 | 2.25 | 161 (≈ 397 µM) | > 100 | > 100 | 2.16 |
| O=C(COc1ccccc1)N1CCCC[C@@H]1c1noc(-c2ccc3ncsc3c2)n1 | > 100 | 177 | 147 | 2.4 | 2 (≈ 4.76 µM) | > 100 | 18 | 3.31 |
| Cc1cc(-c2noc([C@H]3CCCCN3C(=O)COc3ccccc3)n2)n(C)n1 | > 100 | 119 | 507 | 4.34 | 30 (≈ 78.7 µM) | > 100 | > 100 | 3.15 |
| O=C([C@H]1CCCCN1C(=O)COc1ccccc1)N1Cc2cc(F)c(OC3CCOCC3)cc2C1 | > 100 | 210 | 76.8 | 3.57 | 37 (≈ 76.7 µM) | 1.31 | 0.507 | 2.45 |
| CCC(=O)Nc1cccc(-c2n[nH]c([C@H]3CCCCN3C(=O)COc3ccccc3)n2)c1 | > 100 | 35.6 | 330 | 2.89 | 56 (≈ 129 µM) | 76.2 | 65.7 | 2.96 |
| O=C(c1cc(-c2noc([C@H]3CCCCN3C(=O)COc3ccccc3)n2)ccn1)N1CCOCC1 | > 100 | 80.4 | 899 | 5.89 | > 523 | 89.7 | > 100 | 1.75 |
| N#Cc1cccc(-c2nc([C@H]3CCCCN3C(=O)COc3ccccc3)no2)c1 | > 100 | 84.8 | 412 | 3.83 | < 1 | > 100 | 15.6 | 3.17 |

Other lines, results leading:

| IC50 [1] [µM] | IC50 [2] [nM] | IC50 [3] [nM] | Papp [4] [×10⁻⁶ cm/s] | solubility kinetic [5] [µg/mL] | IC50 [6] [µM] | IC50 [7] [µM] | logD [8] | Structure (SMILES) |
| --- | --- | --- | --- | --- | --- | --- | --- | --- |
| 3.58 | 248 | 100 | 1.45 | > 716 | 21 | 5.13 | 0.12 | COc1ccc(Cl)cc1S(=O)(=O)N1CCOc2ccc(C(=O)Nc3ccc(C(=O)O)c(Cl)c3)cc21 |
| > 100 | 108 | 191 | 1.79 | < 1 | > 100 | > 100 | 3.49 | CC(=O)Nc1cccc(C#C[C@H]2CCCCN2C(=O)COc2ccccc2)c1 |
| > 100 | 98.2 | 154 | 3.59 | 8 (≈ 18.4 µM) | > 100 | 4.74 | 2.89 | O=C1Nc2ccc(-c3noc([C@H]4CCCCN4C(=O)COc4ccccc4)n3)cc2CO1 |
| 0.755 | 132 | 92.6 | 1.2 | > 579 | 3.41 | 0.966 | 0.26 | COc1ccc(Cl)cc1S(=O)(=O)N1CCc2ccc(C(=O)Nc3ccc(C(=O)O)c(Cl)c3)cc21 |
| 1.18 | 50.3 | 54 | 2.6 | 12 (≈ 21.5 µM) | > 100 | > 100 | 2.28 | COc1ccc(Cl)cc1S(=O)(=O)N1CCOc2c(Cl)cc(C(=O)Nc3nc(CC(=O)O)cs3)cc21 |
| 2.32 | 71.6 | 51.8 | 0.47 | 12 (≈ 24.1 µM) | 4.27 | 0.579 | 2.36 | COc1ccc(Cl)cc1S(=O)(=O)c1cn(C)c2ccc(C(=O)Nc3ccc(C(=O)O)cc3)cc12 |
| 0.62 | 88.4 | 98.9 | 3.22 | 144 (≈ 260 µM) | > 100 | > 100 | 2.74 | CCN(c1cc(C(=O)Nc2ncc(CC(=O)O)s2)cc2c1OCO2)S(=O)(=O)c1cc(Cl)ccc1OC |
| 79 | 182 | 110 | 1.91 | < 1 | 3.52 | 2.81 | 3.2 | O=C([C@H]1CCCCN1C(=O)COc1ccccc1)N1CCc2cccc(Cl)c2C1 |
